According to patent publication US8563503B2, “Antibiotic, its nucleotide sequence, methods of construction and uses thereof” (Protein Design Lab. Ltd., priority 2011, dated 2013):

B1: wild-type colicin Ia: wild-type bacterial toxin colicin Ia secreted by E. coli (protein, UniProt P06716 1-626, looked up)
Colicin-Ia: MSDPVRITNPGAESLGYDSDGHEIMAVDIYVNPPRVDVFHGTPPAWSSFGNKTIWGGNEWVDDSPTRSDIEKRDKEITAYKNTLSAQQKENENKRTEAGKRLSAAIAAREKDENTLKTLRAGNADAADITRQEFRLLQAELREYGFRTEIAGYDALRLHTESRMLFADADSLRISPREARSLIEQAEKRQKDAQNADKKAADMLAEYERRKGILDTRLSELEKNGGAALAVLDAQQARLLGQQTRNDRAISEARNKLSSVTESLNTARNALTRAEQQLTQQKNTPDGKTIVSPEKFPGRSSTNHSIVVSGDPRFAGTIKITTSAVIDNRANLNYLLSHSGLDYKRNILNDRNPVVTEDVEGDKKIYNAEVAEWDKLRQRLLDARNKITSAESAVNSARNNLSARTNEQKHANDALNALLKEKENIRNQLSGINQKIAEEKRKQDELKATKDAINFTTEFLKSVSEKYGAKAEQLAREMAGQAKGKKIRNVEEALKTYEKYRADINKKINAKDRAAIAAALESVKLSDISSNLNRFSRGLGYAGKFTSLADWITEFGKAVRTENWRPLFVKTETIIAGNAATALVALVFSILTGSALGIIGYGLLMAVTGALIDESLVEKANKFWGI
B2: PMC-PA: Staphylococcus aureus pheromone AgrD I connected to N-terminus of allosteric colicin Ia′; SEQ ID NO. 23; plasmid pBHC-PA (protein)
chain: YSTCDFIMSDPVRITNPAAESLGYDSDGREIMGVDIYLNPPRVDVFKGTPPAWSSFGNKTIWGGNEWVDDSPTRSDIEKRDKEITAYKNTLSAQQKENENKRTEAGKRLSAAIAAREKDENTLKTLRAGNADAADITRQEFRLLQAELREYGFRTEIAGYDALRLHTESRMLFADADSLRISPREARSLIEQAEKRQKDAQNADKKAADMLAEYERRKGILDTRLSELEKNGGAALAVLDAQQARLLGQQTRNDRAISEARNKLSSVTESLNTARNALTRAEQQLTQQKNTPDGKTIVSPEKFPGRSSTNHSIVVSGDPRFAGTIKITTSAVIDNRANLNYLLSHSGLDYKRNILNDRNPVVTEDVEGDKKIYNAEVAEWDKLRQRLLDARNKITSAESAVNSARNNLSARTNEQKHANDALNALLKEKENIRNQLSGINQKIAEEKRKQDELKATKDAINFTTEFLKSVSEKYGAKAEQLAREMAGQAKGKKIRNVEEALKTYEKYRADINKKINAKDRAAIAAALESVKLSDISSNLNRFSRGLGYAGKFTSLADWITEFGKAVRTENWRPLFVKTETIIAGNAATALVALVFSILTGSALGIIGYGLLMAVTGALIDESLVEKANKFWGI
modifications: The peptide of PMC-SA
notes: Staphylococcus aureus pheromone AgrD I connected to N-terminus of allosteric colicin Ia′; 23; plasmid pBHC-PA

What was measured:
[1] = tested on: methicillin-resistant Staphylococcus aureus ATCC BAA-42; assay: Bacteria growth curve (A595 nm), comparison of the novel antibiotics; format: cell-based; details: drug 5 μg/ml, 37° C., A595 nm per hour
Description: The following experiment was set for comparing bacteriostasis effects of 6 kinds of the novel antibiotics. The experimental bacteriaum was United States Standard Strain methicillin-resistant Staphylococcus aureus ATCC BAA-42. 5 microliter of bacteria solution (10^6 CFU/ml level bacterium amount) was added into 10 ml culture solution containing 1% peptone, 1% NaCl, 0.5% yeast extract, 0.5% glucose and 0.1% K2HPO4, total of 8 groups were prepared. The first group as control was added 0.3 M NaCl+50 mM boric acid buffer fluid by the same volume as that of antibiosis polypeptide liquid added in any experimental groups, the second group was added penicillin G sodium by 5 μg/ml, PMC-SA1, PMC-SA2, PMC-SA3, PMC-SA4, PMC-SE and PMC-PA were added in the other experimental groups with preservative fluid being 0.3 M NaCl+50 mM boric acid buffer fluid by 5 ug/ml.
The solution of above groups was put into 100 ml conical flask, 200 rpm, grew at 37° C. 100 μl was sampled per hour, and added onto 96-pore ELISA plate and measured bacteria grown cloudiness by spectrophotometer (A595 nm) color comparison. The bacteria growth curve was drawn up to compare the bacteriostasis efficacy of antibiosis polypeptide.

[2] = tested on: Staphylococcus epidermidis (MSSE strain); assay: MIC by Agar Doubling Dilution Method, clinical isolates; format: cell-based; details: MSSE clinical strains
Description: (§1) (3) Culture Solution • MH Broth Culture Solution: 25 g was added into […] distilled water, heat to dissolve, subpackaged, autoclaved at 116° C. for 20 minutes, and MH Solid Culture Medium, 36 g was added into 1000 ml distilled water, autoclaved at 116° C. for 20 minutes, used for drug sensitive test of Gram-positive and negative aerobic bacteria. • Blood culture solution for Enterococcus faecalis, which was prepared by adding defibration rabbit blood into the MH culture solution by 5-10% and cultured at 37° C. in 5% CO2 for 24 hours. 2. Experimental Methods (1) The Measurement of Minimum Inhibitory Concentration (MIC) • The Minimum Inhibitory Concentration (MIC) of PMC-SA1 was measured by Agar Doubling Dilution Method. The bacterium was inoculated on the surface of agar plate containing different concentration of drugs by multipoint inoculate instrument (Deneley A400). The bacterial content per point was 10^5 CFU/ml. After incubated at 37° C. for 18-24 hours, the result can be observed. The least concentration of drugs in plate culture solution without bacterium growing was Minimum Inhibitory Concentration (MIC) of the drug to the said bacteria. 3. Results

[3] = tested on: Staphylococcus epidermidis (MRSE); assay: as above; format: cell-based; details: MRSE clinical strains
Description: as §1

[4] = tested on: Staphylococcus aureus (MSSA); assay: as above; format: cell-based; details: MSSA clinical strains
Description: as §1

[5] = tested on: methicillin-resistant Staphylococcus aureus (ATCC BAA-42); assay: Transmission electron microscope observation of bactericidal effect; format: cell-based; details: oxacillin 500 μg/ml, […]
Description: Transmission Electron Microscope Observations of the Bactericidal Effect of the Novel Antibiotic PMC-SA1 on Methicillin-Resistant Staphylococcus aureus (ATCC BAA-42) (Dyed by 1% Phospho-Wolframic Acid, Magnified by 25,000 Fold)
Culture solution: 1% tryptone, 1% NaCl, 0.5% yeast extract, 0.5% glucose, 0.1% K2HPO4.
Con: control group, the bacterium was added to the above culture solution and proper amount of 0.3 M NaCl+50 mM boric acid buffer solution, 200 rpm, grew at 37° C. for 2 hours, and the bacterial appearance was still regular;
PMC: the bacterium was added to the above culture solution with 10 μg/ml PMC-SA1 for 0.5 hours.

Enterococcus = assay: MIC by Agar Doubling Dilution Method, clinical isolates; format: cell-based, Enterococcus faecalis; details: Enterococcus clinical strains
Description: as §1

[6] = tested on: Pseudomonas aeruginosa Standard Strain (ATCC 27853); assay: Bacteria growth curve (A595 nm cloudiness), Pseudomonas aeruginosa; format: cell-based; details: drug 5 μg/ml, 37° C., A595 nm per hour
Description: The experimental bacterium was Pseudomonas aeruginosa Standard Strain (ATCC 27853) purchased from the Center for General Microorganism of the Administration (CGMCC). 5 microliter bacteria solution (10^6 CFU/ml level bacterium amount) was added into 10 ml MH culture solution. Seven groups are prepared. 0.3 M NaCl+50 mM boric acid buffer fluid which amount was identical to amount of antibiosis polypeptide liquid in the experimental group was added as control in the first group, 5 μg/ml wild-type colicin Ia was added in the second group, 5 μg/ml PMC-SA1 was added in the third group, and 5 μg/ml PMC-PA was added in the fourth group.
Liquid in the above groups was put into 100 ml conical flask, 200 rpm, grew at 37° C. 100 μl was sampled per hour, and added onto 96-hole Elisa Plate to measure bacteria grown cloudiness by spectrophotometer (A595 nm) color comparison. The bacteria growth curve was drawn up to compare the bacteriostasis efficacy of antibiosis polypeptide.

[7] = tested on: Multiple-drug resistance Pseudomonas aeruginosa (clinical separated strain 13280); assay: In vivo protection of mice infected by multiple-drug resistance Pseudomonas aeruginosa; design: species or system Kungming mice; details: 5 mg/kg intravenous, fatal dose i.p.
Excerpt: (1) Drugs • PMC-PA, piperacillin, amikacin, ceftazidime, levofloxacin.
Multiple-drug resistance Pseudomonas aeruginosa (clinical separated strain 13280, isolated by laboratory bacteria room of West China Hospital)
Kungming mice (n=60), half male and half female, weighing 15-20 g were given intraperitoneal injection of multiple-drug resistance Pseudomonas aeruginosa, therein PMC-PA, piperacillin, amikacin, ceftazidime and levofloxacin experimental group were set respectively as 10 mice per group, while the control group was set as 10 mice per group. After given intraperitoneal injection of fatal dose of the bacterium, the mice in drug experimental groups respectively were given an intravenous injection of one kind of above drugs, the results were observed per 24 hours for continuous 10 days. The positive result was mouse's death.

Molecule	bacteriostasis effect on growth of methicillin-resistant Staphylococcus aureus (bacteria growth curve) [1]	MIC50 [2]	MIC90 [2]	Scope of MIC [2]	MIC50 [3]	MIC50 [4]	MIC90 [4]	Scope of MIC [4]	bactericidal effect, bacterial appearance under transmission electron microscope [5]	bactericidal effect, bacterial appearance under transmission electron microscope ([5]; listed as oxacillin)	MIC50 (Enterococcus)	growth of Pseudomonas aeruginosa (bacteria growth curve) [6]	survival rate of mice in 10 days [7]	growth of Pseudomonas aeruginosa (bacteria growth curve) ([6]; listed as SEQ ID NO. 23)
Cc1onc(-c2ccccc2)c1C(=O)N[C@@H]1C(=O)N2[C@@H]1SC(C)(C)[C@@H]2C(=O)[O-].[Na+] [Oxacillin, Oxacillin Sodium]	can hardly be restrained	0.03 µg/mL	0.125 µg/mL	<0.125-0.25 ^ mg/L	64 µg/mL	0.125 µg/mL	0.125 µg/mL	<0.015-0.25 ^ mg/L	the colour as well as appearance of the bacterium had changed, but the thallus was still integrated	the appearance of bacterium had changed, but thallus were still integrative	16 µg/mL			
B1												can not be effectively restrained		
B2	the worst											completely restrained	100%	has antibacterial effect on Pseudomonas aeruginosa
